Reference: patent US4212797A, “Synthetic pentapeptide having opiate agonist activity” (Beckman Instruments, Inc., priority 1976, dated 1980)

Key:
[1] = test system: opiate receptor (stereospecific naloxone binding); experiment: Inhibition of stereospecific naloxone binding (Pert and Snyder technique); details: for ID50, concentration required to inhibit 50% of stereospecific naloxone binding: sodium 100 mM
Protocol: B., and Snyder, S., Proceedings of the National Academy of Sciences, Vol. 70, pp. 2243-2247 (1973). The potency is measured as ID50, defined as the concentration required to inhibit 50% of stereospecific naloxone binding. The concentration of sodium was 100 mM. The effectiveness is inversely related to the ID50 value.

[2] = test system: opiate receptor sites; details: Hughes et al, Nature 258, 577-579 (1975); cited from earlier work

Row | Compound | ID50, concentration required to inhibit 50% of stereospecific naloxone binding [1] | Opiate agonist potency, comparison in words [2] | Potency relative to the more potent sequence of enkephalin ([1]; from ID50 values of Table 1)
1 | CSCC[C@H](NC(=O)[C@H](Cc1ccccc1)NC(=O)CNC(=O)CNC(=O)[C@@H](N)Cc1ccc(O)cc1)C(=O)O [Enkephalin sequence one, H-Tyr-Gly-Gly-Phe-Met-OH] | 0.4 | more potent than sequence two | –
2 | CSCC[C@H](NC(=O)[C@H](Cc1ccccc1)NC(=O)CNC(=O)CNC(=O)[C@@H](N)Cc1ccc(O)cc1)C(N)=O [Subject Pentapeptide, H-Tyr-Gly-Gly-Phe-Met-NH2] | 0.2 | – | twice as potent as the more potent sequence of enkephalin
3 | CC(C)C[C@H](NC(=O)[C@H](Cc1ccccc1)NC(=O)CNC(=O)CNC(=O)[C@@H](N)Cc1ccc(O)cc1)C(=O)O [Enkephalin sequence two, H-Tyr-Gly-Gly-Phe-Leu-OH] | 1.4 | – | –
